Data on two compounds can be found in patent US20180298344A1, “Realistic Humanized Model of Disease Matrix Environment for Evaluation of Therapeutic Reversal or Cell Fate” (Yale University, priority 2017, published 2018).

Test [1] relates to human microvascular pericytes (PC). Put plainly: Long-term (28 day) differentiation of PC on glass coverslips: matrix deposition, fibrotic lesions, α-SMA and vimentin. It is filed as cell-based. The settings on record: for increase in the formation of lesions compared with nonactivated control: glass. Here is the method:
Human microvascular PC were isolated from a readily available and nearly inexhaustible source, human placental tissue, by microvascular segment explant outgrowth (Sava et al., Microcirculation, 2015, 22:54-67; Ayres-Sander et al., PLoS One, 2013, 8:e60025; Lauridsen et al., FASEB, 2014, 28:1166-1180; Maier et al., Microcirculation, 2010, 17:367-380). Human placental tissue was segmented, digested with collagenase, and the resulting cells were cultured in M199 (Gibco, Grand Island, NY, USA) medium supplemented with 20% FBS (Hyclone Laboratories, Logan, Utah, USA), and 1% penicillin-streptomycin (Gibco). Isolated pericytes were screened by flow cytometry against NG2 (H-300, Santa Cruz Biotechnology), CD90 (K-15, Santa Cruz), CD146 (P1H12, Biolegend, San Diego, Calif., USA), PDGFR-β (18A2, Santa Cruz), α-SMA (1A4, Santa Cruz), SMMHC (N-16, Santa Cruz), CD31 (C20, Santa Cruz), CD34 (581, Sigma) and CD45 (MEM-28, Sigma). As negative control, PC were incubated with isotype matched IgG. Samples were run on a Stratedigm S1000EXi Flow Cytometer (Stratedigm, San Jose, Calif. USA) and analyzed with FlowJo software (Tree Star, Ashland, Oreg., USA).
For short term (7 day) differentiation studies, PC (passage 3-7) were seeded on healthy or IPF lung tissue slices, polyacrylamide hydrogels, or 25 mm glass coverslips (VWR) at 100×10^3 cells per sample and activated with control media (non-activated), or 1 ng/mL TGF-β1 (PeproTech, Rocky Hill, N.J., USA) for 7 days (18, 19). For bleomycin activation, the cells were activated with 1 μg/mL bleomycin sulfate (Cayman Chemical, Ann Arbor, Mich.) for 1 day and the media was replaced with non-activated media for the remaining 6 days (Sava et al., Microcirculation, 2015, 22:54-67; Sterling et al., J Bio Chem, 1983, 258:14438-14444). TGF-β1 and bleomycin concentrations were based on reports consistent with activation of fibroblasts (Sava et al., Microcirculation, 2015, 22:54-67; Maroni and Davis, Bio Reprod, 2012, 87:127). Treatment with CCG-1423 (Sigma) was performed at day 0 for the full 7 days, and labeled as early treatment, or at day 7 and performed for 7 days, and labeled as late treatment. For long-term (28 day) differentiation studies, PC were cultured on 25 mm glass coverslips (VWR) or normal lung sections and the cell media was supplemented with 100 μM ascorbic acid (Spectrum Chemicals, New Brunswick, N.J., USA) to induce matrix deposition. Activation was performed with control media (non-activated), or 1 ng/mL TGF-β1. The media was replaced 3 times a week for 4 consecutive weeks (28 days) in order to mimic the chronic conditions present during fibrosis (Moeller et al., Int J Biochem Cell Biol, 2008, 40:362-382; Sava et al., Microcirculation, 2015, 22:54-67). Treatment with nintedanib (Santa Cruz) was performed at day 21 for the remaining 7 days, and labeled as early treatment, or at day 28 and performed for 2 days, and labeled as late treatment. Concentrations of CCG-1423 (1.0 nM), and nintedanib (1.0 nM) are based on therapeutic dose in studies performed on myofibroblasts (Evelyn et al., Mol Cancer Ther, 2007, 6:2249-2260, Hostettler et al., Resp Res, 2014, 15:157; Conte et al., Eur J Pharm Sci, 2014, 58:13-19; Shi et al., PLoS One, 2011, 6:e28134).
Pericyte pro-fibrotic activation/transition/phenotype was evaluated by positive staining for α-smooth muscle actin (SMA) using anti-α-SMA (1A4, Santa Cruz) and anti-vimentin (V630, Sigma). For matrix composition analysis, the coverslips were stained with anti-collagen I (ab233446, Abcam, Cambridge, Mass., USA), anti-laminin (Clone ab11575, Abcam), anti-collagen IV (Clone C1926, Sigma), or anti-fibronectin (Clone F3648, Sigma) antibodies.

For another test, the system named is tumor. The settings on record: by reducing PC coverage; cited from earlier work.
In test [2] the test system is human microvascular pericytes (PC). The test is described as follows: Gelatinase zymography of active MMP2 and MMP9 from TGF-β1-activated PC with or without nintedanib. It counts as cell-based.
Where [3] appears, read: nintedanib 7 days, TGF-β1-activated PC on glass, flow cytometry.

For `COC(=O)c1ccc2c(c1)NC(=O)/C2=C(\Nc1ccc(N(C)C(=O)CN2CCN(C)CC2)cc1)c1ccccc1` [nintedanib], in test [1] (setting [3]), the expression of vimentin result is “without affecting” and the “expression of α-SMA” value is “without affecting”. The fibrotic node formation result in test [1] (nintedanib 7 days, TGF-β1-activated PC on glass, versus TGF-β1) is on record as “reduced”. Besides, the fibronectin entry in test [1] (nintedanib 7 days, TGF-β1-activated PC on glass, versus TGF-β1, immunoblotting, P=0.002) is reported as “reduced”. The “collagen I” value in test [1] (nintedanib 7 days, TGF-β1-activated PC on glass, versus TGF-β1, immunoblotting, P=0.01) was “reduced”. In addition, in the test with tumor, the tumor growth entry is “inhibit tumor growth”. Besides, the “generation of active MMP9” value in test [2] (P<0.01) is “enhanced”. For the same compound, in test [2] (P<0.05), the “generation of active MMP2” value is “enhanced”.
As for “TGF-β1: transforming growth factor (TGF)-β1, fibrotic activator, used at 1 ng/mL”, the “increase in the formation of lesions compared with nonactivated control” value was determined as 2.2 fold in test [1] (day 14 of TGF-β1 exposure, P<0.001) and 1.8 fold in test [1] (day 28 of TGF-β1 exposure, P<0.01). In addition, the “vimentin expression compared with nonactivated control” value in test [1] (long-term TGF-β1 activation on glass, P<0.0001) was “significant increase”. In addition, in test [1] (long-term TGF-β1 activation on glass, P=0.011), the “α-SMA expression compared with nonactivated control” value is “significant increase”.
